Numbered stars: 1 amine (or outer) side, 2 acyl side, 3 side chain; on linkers, the order of the positions; unused ones are H or OH. Bridge positions count the residues as written; N and C are the ends. Square brackets hold non-standard residues; d marks the D form. Peptide text beside a SMILES is read from it. * marks the point of attachment. X1 = O=C([C@H](CCCCCC=[*:3])N[*:1])[*:2]; Nle = CCCC[C@H](N)C(=O)O; BrAc = O=C(CBr)*
Tests used:
[1] = tested on: FtsB-mNG localization in E. coli lptD4213 (imp); experiment: Localization of FtsB-mNG (fluorescence microscopy); type: cell-based; conditions: peptide c = 100 μM, 60 min after addition, MOPS rich medium, 37 °C
Method: were incubated for 1 h at 50 °C. The condensates were collected by centrifuging for 10 s. The digests were mixed for a few seconds and transferred to another tube. 0.5 % TFA was added to inactivate trypsin. The samples were […]
E.coli mutant lptD4213 (imp)
MOPS: MOPS EZ Rich Defined Medium Kit M2105 (Teknova).
At the end of the day, the cells
The next day, the cells were grown and diluted […]
objective. […] In all experiments, the cells […]
ex470/40, dic495LP, em525/50).

[2] = tested on: E. coli lptD4213 (imp) cells; experiment: Microscopy and morphology assay (cell length); type: cell-based; conditions: 17fα 100 μM
Method: 1.8 Microscopy and morphology assay
Morphology assays were executed to assess the physiological change of E.coli cells upon exposure to different peptides. All steps in this protocol were performed under sterile conditions. For each assay, 20 mL of fresh MOPS medium was prepared (40 mM MOPS, 4 mM tricine, 0.01 mM FeSO-4, 9.5 mM NH4Cl, 0.276 mM K2SO4, 0.5 […]
The next day, the overnight culture […]
was diluted to an OD600 of 0.1. […]
min, after which the supernatant was discarded.
The frozen samples were thawed and 3 μL of […]
morphology of the cells was investigated. […]
accessed on February 2020).
The FtsQ(50˗276) stock solution was diluted to
NH4HCO3 (pH 7.6), 150 mM NaCl).
The gel was placed in the container
Colloidal Coomassie staining solution […]
was washed 3x for 30 min with water.
The gel pieces were washed with 200 μL water by vortex mixing for 30 s. Then the water was discarded. The gel pieces were then washed with […]
discarded and the procedure repeated once.
The supernatants were discarded and 200 μL of 100 %
ACN added, mixed and incubated for 30 s. […] They were then

E. coli 87 = experiment: Zebrafish larvae infection model (E. coli 87 expressing mScarlet); type: in vivo, zebrafish (Danio rerio) larvae; conditions: L8S1 3.125 μM, 17fα 70 μM, 15 zebrafish per condition
Method: 1.13 Microinjection of zebrafish larvae with E.coli 87 expressing mScarlet Transparent Casper zebrafish (Danio rerio) larvae were infected and treated according to protocols described by Van der Sar et al. and Bernard et al..7,8 In brief, zebrafish larvae collected from a laboratory-breeding colony kept at 24 °C and a 12:12 h dark/light regime. Larvae were selected based on morphology according to hours post fertilization (hpf) and kept at 28 °C. All protocols followed the international guidelines on the protection of animals used for scientific purposes specified by the EU Directive 2010/63/EU, which allows zebrafish larvae to be used up to the moment of free-living (5–7 dpf). Larvae were dechorionated at 28 hpf and anaesthetized in 0.2% tricaine methanesulfonate (MS222, Fluka A-5040). Larvae were individually infected with 1 nL, containing approximately 150-200 CFU ([…]), of mScarlet expressing clinical isolate E. coli 87 via microinjection of the caudal vein as described previously.9 One hour post infection, larvae were treated with L8S1, 17fα or a combination of the two via another microinjection of 1 nL in the caudal vein. To correct dilution of the treatment upon injection in the vein (1 nL in 250 nL zebrafish larvae volume), treatments were diluted in 0.1% phenol red (Sigma-Aldrich, p-0290) in phosphate buffered saline (PBS) to 250x the concentration as tested in vitro. Zebrafish larvae were kept at 30 °C throughout the experiment and survival of the larvae, based on heartbeat, was determined every 24 h for 2 d. Moreover, 18 h post infection larvae were anaesthetized using MS222 and bacterial load was determined using an Olympus IX83 fluorescence microscope (4x objective magnification, Hamamatsu ORCA-Flash 4.0 camera) at specific wavelength for detection of red fluorescence (excitation/emission, 580/610 nm). Obtained images were analyzed using CellProfiler 3.19 (Broad Institute, Cambridge, MA, USA) with a custom-made automated analysis pipeline to count and quantify pixel intensity within the larvae. Integrated red fluorescence intensity per larvae was used as a quantification of bacterial burden.

FtsQ(50–276) = FtsQ(50–276) (Escherichia coli, UniProt P06136); type: biochemical, E. coli; set-up: pET16b FtsQ(50˗276), a His6 fusion; made in house; host or cells: Escherichia coli BL21 DE3; conditions: peptide 125 μM, FtsQ(50–276) 50 μM, 37 °C, 1 or 3 h
FtsQ(50–276), sequence (P06136 50-276): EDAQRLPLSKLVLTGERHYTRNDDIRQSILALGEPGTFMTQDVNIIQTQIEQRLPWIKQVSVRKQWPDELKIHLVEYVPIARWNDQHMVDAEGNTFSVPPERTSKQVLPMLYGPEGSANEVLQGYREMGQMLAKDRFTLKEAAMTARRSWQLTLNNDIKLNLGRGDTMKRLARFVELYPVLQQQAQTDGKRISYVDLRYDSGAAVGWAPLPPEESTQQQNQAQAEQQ
Method: 1.5 Protein modification assay
To determine the reactivity of the different modifiers FtsQ(50˗276) was diluted to a concentration of 100 µM in 20 mM NH4HCO3 buffer (pH 7.6, 150 mM NaCl). The individual peptides were diluted to a concentration of 250 μM in the same buffer. Equal volumes of both solutions were mixed and incubated at 37 °C for the given time period (1 h or 3 h). The reaction was quenched using 5x SDS sample buffer (pH 6.8, 1.875 g TRIS-Cl, 25 mL glycerol, 5 g SDS, 12.5 mL β-mercaptoethanol, 0.5 % bromphenol blue and add 50 mL ddH2O). Samples were heated to 96 °C for 2 min and subsequently analysed by 17 % tris/tricine PAGE (15 min at 90 V and then 3:45 h at 150 V). PageRuler™ Prestained Protein Ladder, 10 to 180 kDa (Thermo Scientific™) was used as a ladder.
Staining was performed using standard Coomassie Staining Solution (40 mL EtOH, 0.3 g Coomassie Blue R250, 0.3 g Coomassie Blue G250, ad 100 mL ddH2O.) and then destained using water.
17 % Tris/Tricine gel (2x):
Running gel: 1.6 mL H2O, 5.5 mL AB-mix, 2.5 mL Buffer A, 100 μL 10% APS, 10 μL 1% TEMED Stacking gel: 2.1 mL H2O, 0.5 mL AB-mix, 0.38 mL Buffer A, 50 μL 10% APS, 5 μL 1% TEMED […]
Buffer A (4x) pH 8.45 3M Tris, 0.3 % SDS; Anode Buffer (10x) pH 8.8, 3M Tris; Cathode buffer (10x) 1M Tris, […]

For `CCCC[C@@H]1NC(=O)[C@H](CO)NC(=O)[C@H](CC(C)C)NC(=O)[C@H](CCC(=O)O)NC(=O)[C@H](CC(N)=O)NC(=O)[C@@H](NC(=O)[C@H](C)NC(C)=O)CCCCCC=CCCCCC[C@@H](C(=O)N[C@@H](CCCCNC(=O)CBr)C(=O)N[C@@H](Cc2ccccc2)C(=O)N[C@@H](Cc2ccc(O)cc2)C(=O)N[C@@H](CCCNC(=N)N)C(=O)N[C@@H](CC(C)C)C(N)=O)NC(=O)CNC(=O)[C@@H]2CCCN2C(=O)[C@H](CCCNC(=N)N)NC(=O)[C@H]([C@@H](C)O)NC1=O` [17fα] (Ac-A[X1]NELS[Nle]TRPG[X1]K(BrAc)FYRL-NH2; staple 2-12), the FtsB-mNG midcell localization [1] was “loss of midcell localization”, the “cell length median (1h)” value ([2]; 1 h) was 4.7 μm and the “cell length mean (1h)” value ([2]; 1 h, phase contrast microscopy, ImageJ/ObjectJ) was 5.3 μm. The “cell length mean (6h)” value ([2]; 6 h) was 12.4 μm, the “cell length median (6h)” value ([2]; 6 h) was 11.3 μm and the “Survival rate of zebrafish larvae after 24 h (mean ± SD)” value (E. coli 87; infected with E. coli 87 (189 CFU), treated 1 h post infection by microinjection, survival by heartbeat, n = 4 replicates, SD) was 20.0 ±16.3. For the same compound, the “Survival rate of zebrafish larvae after 24 h, replicate #1” value (E. coli 87; replicate #1, E. coli 87 (189 CFU)) was 0, the “Survival rate of zebrafish larvae after 24 h, replicate #2” value (E. coli 87; replicate #2, E. coli 87 (189 CFU)) was 40 and the “Survival rate of zebrafish larvae after 24 h, replicate #3” value (E. coli 87; replicate #3, E. coli 87 (189 CFU)) was 20. The “Survival rate of zebrafish larvae after 24 h, replicate #4” value (E. coli 87; replicate #4, E. coli 87 (189 CFU)) was 20 and the “specificity of FtsQ(50–276) modification (number of up-shifted bands)” value (FtsQ(50–276)) was “robust and selective covalent modification”.

Source: publication PMC9413201, “Covalent Proteomimetic Inhibitor of the Bacterial FtsQB Divisome Complex” (Journal of the American Chemical Society, 2022)
